Read-outs that look alike come from different tables or passages of the source. Numbered stars: 1 amine (or outer) side, 2 acyl side, 3 side chain; on linkers, the order of the positions; unused ones are H or OH. Bridge positions count the residues as written; N and C are the ends. Square brackets hold non-standard residues; d marks the D form. Ends that are not written are not given here. Peptide text beside a SMILES is read from it. I, II: the chains in the order shown. Actinocin(9to1) = Cc1c2oc3c(C)ccc(C(=O)[*:1])c3nc-2c(C(=O)[*:2])c(N)c1=O; NMeV = CN[C@H](C(=O)O)C(C)C; Sar = CNCC(=O)O
How the values were obtained:
Fetal rat islets = test: Insulin content of cultured fetal rat islets; format: cell-based; conditions: 200μ/ml PYY for 5 days, actinomycin D at 0.1, 0.2, 0.5 and 1.0 μg/ml for the last 16 hours
Source text: (§1) Fetal rat islets were obtained as follows. […] Fetuses were removed from the uterus.

e21 islets = test: IBMX stimulated calcium influx in e21 islets; format: cell-based, rat; conditions: 1 μM IBMX in 3 mM (low) glucose; non-glucose responsive e21 islets
Protocol: as §1
E21 islet were isolated and cultured according to Example 1. Islets were then treated with 17 mM glucose or 1 μM IBMX in 3 mM (low) glucose (FIG. 2).

[1] = test system: small ducts from rat pancreas; conditions: cited from earlier work
E21 fetal islets = test: Glucose-stimulated insulin release (static insulin release, RIA) in cultured e21 fetal rat islets; conditions: e21 fetal islets cultured for 5 days with 200 ng/ml peptide
[2] = confluent duct monolayer, single treatment preferentially 48 hr

Cc1c2oc3c(C)ccc(C(=O)N[C@@H]4C(=O)N[C@H](C(C)C)C(=O)N5CCC[C@H]5C(=O)N(C)CC(=O)N(C)[C@@H](C(C)C)C(=O)O[C@@H]4C)c3nc-2c(C(=O)N[C@@H]2C(=O)N[C@H](C(C)C)C(=O)N3CCC[C@H]3C(=O)N(C)CC(=O)N(C)[C@@H](C(C)C)C(=O)O[C@@H]2C)c(N)c1=O [Actinomycin D, actinomycin D] (I: T[dV]P[Sar][NMeV] / II: T[dV]P[Sar][NMeV]; ester I:1-I:C, II:1-II:C; linker I:N-II:N via Actinocin(9to1))
overall islet insulin content (Fetal rat islets): did not significantly decrease overall islet insulin content

CC(C)Cn1c(=O)n(C)c(=O)c2[nH]cnc21 [IBMX]
intracellular calcium influx (e21 islets): induced a calcium influx

CCCC(=O)[O-].[Na+] [Na-Butyrate]
induction of differentiation [1, 2]: found to induce differentiation

CCCC(=O)Nc1ncnc2c1ncn2[C@@H]1O[C@@H]2COP(=O)(O)O[C@H]2[C@H]1OC(=O)CCC [dibutyrl cAMP]
induction of differentiation [1, 2]: found to induce differentiation

PPP: related peptide sharing approximately 70% amino acid homology with PYY; probably pancreatic polypeptide (PP) (APLEPVYPGDNATPEQMAQYAADLRRYINMLTRPRY; ends and bridges not checked; UniProt P01298 30-65, looked up)
gain of glucose responsivity (glucose-stimulated insulin release) (E21 fetal islets): did not stimulate gain of glucose responsivity

cholera toxin
induction of differentiation [1]: found to induce differentiation

neuropeptide Y [NPY]
gain of glucose responsivity (glucose-stimulated insulin release) (E21 fetal islets): did not stimulate gain of glucose responsivity

Source: US7807641B2, “Methods and reagents for treating glucose metabolic disorders” (Curis, Inc., priority 1999, dated 2010)
